Results reported in article PMC5084075 (ACS Central Science, 2016).
Where two headings read alike, the source gives them in different places.

Assays:
in vitro [1] = assay: in vitro; parameters: metabolic stability in mouse liver microsomes, LC-MS, NADPH, 0.4 mg/mL protein; conditions: liver microsomes, mouse liver microsomes
Protocol: (§1) The two original GSK hits (OSM-S-5 and -6) and six NN compounds were evaluated for their kinetic solubility in phosphate buffer and their metabolic stability in human liver microsomes (Table SB5, Data Sets S20 and S21).

in vitro [2] = assay: in vitro; parameters: metabolic stability in human liver microsomes, LC-MS, NADPH, 0.4 mg/mL protein; conditions: liver microsomes, human liver microsomes
Protocol: as §1

[3] = tested on: Plasmodium falciparum Pfal (strain not named in column head); assay: microbe, parasite or virus in culture; parameters: asexual blood stage P. falciparum whole-cell growth inhibition
Protocol: To confirm the promise of the two starting points OSM-S-5 and -6, they were evaluated against 3D7 (drug-sensitive) and K1 (chloroquine resistant) strains of Plasmodium falciparum in a whole cell assay and against HEK-293 cells as a cytotoxicity marker (Table SB1, Biological Protocols; tables with the prefix “SB” may be found in the Supporting Information). Biological data may be browsed in a static data set taken as a snapshot for this paper (Data Sets S1 (Excel), S2 (SDF)), online in a database constructed through periodic batch uploads,[68] or in a “living database” to which may be added future data;[69] the latter may be visualized in a web browser[70] using an open source system that was recently deployed in the Wikipedia Chemical Structure Explorer,[71] or the data may be downloaded and visualized offline with proprietary (Figure S4)[72] or open source (Figure S5)[73] tools). The evaluation was performed in three different institutions using different assays and widely employed controls; controls are important to assess reproducibility and interassay variability[74] but also to minimize possible bias in evaluating compounds where there are pre-existing data from other researchers already in the public domain (Figure S6).[75]

[4] = read-out: 0.4 / CLint, in vitro / (mL/min/mg protein)
[5] = read-out: Protein Conc. (mg/mL): / Degradation half-life /

Nc1ncnc2cc(-c3cccc(S(N)(=O)=O)c3)sc12 [OSM-S-106]
microsomal CLint (in vitro [1]; [4]): 0.0471 mL/min/mg | half-life (in vitro [1]; [5]): 36.8 min | microsomal CLint (in vitro [2]; [4]): < 0.007 mL/min/mg | half-life (in vitro [2]; [5]): > 247 min | IC50 [3]: 36 nM
